Assay results from patent US6525001B1, “Substituted pyrimidine and pyridine herbicides” (Mid-American Commercialization Corporation, priority 1997, dated 2003).

Columns and labels:
Type in all cases: in vivo
[1] = system: rape (Brassica napus); assay: Test B pre-/postemergence; design: key: 0 is no effect; 10 is complete control
In short: (§1)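 Seeds were planted and sprayed preemergence, while plants at 2 to 18 cm (1- to 4-leaf stage) were sprayed postemergence at the same time, with test chemical in a non-phytotoxic solvent mixture containing surfactant. After twelve to sixteen days in a greenhouse, injury was rated visually against untreated controls on a 0–10 scale.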

[2] = system: soybean (Glycine max); assay: Test B pre-/postemergence; design: key: 0 is no effect; 10 is complete control
In short: as §1

[3] = system: bamyardgrass (Echinochloa crus-galli); assay: Test B flood test; design: key: 0 is no effect; 10 is complete control
In short: (§2)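 Plants were grown to the 2-leaf stage before treatment with test chemical, then held in a greenhouse for twelve to sixteen days. Injury was visually rated against untreated controls on a 0–10 scale, where 0 is no effect and 10 is complete control.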

[4] = system: duck salad (Heteranthera limosa); assay: Test B flood test; design: key: 0 is no effect; 10 is complete control
In short: as §2

[5] = system: rice (Oryza sativa); assay: Test B flood test; design: key: 0 is no effect; 10 is complete control
In short: as §2

[6] = system: smallflower flatsedge (Cyperus difformis); assay: Test B flood test; design: key: 0 is no effect; 10 is complete control
In short: as §2

[7] = system: cotton (Gossypium hirsutum); assay: Test C; design: key: 0 was no effect; 100 was complete control; conditions: PREEMERGENCE
[8] = system: eastern black nightshade (Solanum ptycanthum); assay: Test C; design: key: 0 was no effect; 100 was complete control; conditions: PREEMERGENCE
[9] = system: field bindweed (Convolvulus arvensis); assay: Test C; design: key: 0 was no effect; 100 was complete control; conditions: PREEMERGENCE
[10] = system: giant foxtail (Setaria faberii); assay: Test C; design: key: 0 was no effect; 100 was complete control; conditions: PREEMERGENCE
[11] = system: lambsquarters (Chenopodium album); assay: Test C; design: key: 0 was no effect; 100 was complete control; conditions: PREEMERGENCE
[12] = system: surinam grass (Brachiaria decumbens); assay: Test C; conditions: PREEMERGENCE
[13] = system: wild poinsettia (Euphorbia heterophylla); assay: Test C; design: key: 0 was no effect; 100 was complete control; conditions: PREEMERGENCE
[14] = Rate 62 g/ha, Postemergence (flood test)
[15] = Rate 125 g/ha, Postemergence section (flood test species)
[16] = Rate 250 g/ha, Postemergence (flood test species)
[17] = Rate 500 g/ha, Postemergence (flood test species)
[18] = Preemergence, Rate 62 g/ha, scale of 0 to 10

Compound: Cc1cnc(-n2ccc(C(F)(F)F)n2)nc1Cn1ccc(C(F)(F)F)n1 [Compound 52]
- Plant response rating, Rape ([1]; Rate 62 g/ha, Postemergence): 9
- Rape plant response rating ([1]; Rate 62 g/ha, Preemergence): 9
- Rape plant response rating ([1]; Rate 125 g/ha, Postemergence): 9
- Plant response rating, Rape ([1]; Rate 125 g/ha, Preemergence): 10
- Plant response rating, Rape ([1]; Rate 250 g/ha, Postemergence): 9
- Plant response rating, Rape ([1]; Rate 250 g/ha, Preemergence): 10
- Plant response rating, Rape ([1]; Rate 500 g/ha, Postemergence): 10
- Plant response rating, Rape ([1]; Rate 500 g/ha, Preemergence): 10
- Plant response rating, Soybean ([2]; Rate 62 g/ha, Postemergence): 9
- Soybean plant response rating ([2]; Rate 62 g/ha, Preemergence): 4
- Soybean plant response rating ([2]; Rate 125 g/ha, Postemergence): 9
- Plant response rating, Soybean ([2]; Rate 125 g/ha, Preemergence): 7
- Plant response rating, Soybean ([2]; Rate 250 g/ha, Postemergence): 9
- Plant response rating, Soybean ([2]; Rate 250 g/ha, Preemergence): 8
- Plant response rating, Soybean ([2]; Rate 500 g/ha, Postemergence): 9
- Plant response rating, Soybean ([2]; Rate 500 g/ha, Preemergence): 9
- Plant response rating, Barnyardgrass [3, 14]: 5
- Barnyardgrass plant response rating [3, 15]: 6
- Plant response rating, Barnyardgrass [3, 16]: 7
- Plant response rating, Barnyardgrass [3, 17]: 8
- Plant response rating, Ducksalad [4, 14]: 9
- Ducksalad plant response rating [4, 15]: 9
- Plant response rating, Ducksalad [4, 16]: 9
- Plant response rating, Ducksalad [4, 17]: 9
- Plant response rating, Rice [5, 14]: 3
- Rice plant response rating [5, 15]: 5
- Plant response rating, Rice [5, 16]: 7
- Plant response rating, Rice [5, 17]: 7
- Plant response rating, S. Flatsedge [6, 14]: 9
- S. Flatsedge plant response rating [6, 15]: 9
- Plant response rating, S. Flatsedge [6, 16]: 9
- Plant response rating, S. Flatsedge [6, 17]: 9
- Plant response rating, Cotton ([7]; Rate 35 g/ha): 0
- Plant response rating, Cotton ([7]; Rate 70 g/ha): 0
- Plant response rating, Cotton ([7]; Rate 140 g/ha): 70
- Plant response rating, E. blacknightsh ([8]; Rate 35 g/ha): 40
- Plant response rating, E. blacknightsh ([8]; Rate 70 g/ha): 80
- Plant response rating, E. blacknightsh ([8]; Rate 140 g/ha): 100
- Plant response rating, Field bindweed ([9]; Rate 35 g/ha): 100
- Plant response rating, Field bindweed ([9]; Rate 70 g/ha): 100
- Plant response rating, Field bindweed ([9]; Rate 140 g/ha): 100
- Plant response rating, Giant foxtail ([10]; Rate 35 g/ha): 70
- Plant response rating, Giant foxtail ([10]; Rate 70 g/ha): 85
- Plant response rating, Giant foxtail ([10]; Rate 140 g/ha): 100
- Plant response rating, Lambsquarters ([11]; Rate 35 g/ha): 100
- Plant response rating, Lambsquarters ([11]; Rate 70 g/ha): 100
- Plant response rating, Lambsquarters ([11]; Rate 140 g/ha): 100
- Plant response rating, Surinam grass ([12]; Rate 35 g/ha): 5
- Plant response rating, Surinam grass ([12]; Rate 70 g/ha): 40
- Plant response rating, Surinam grass ([12]; Rate 140 g/ha): 70
- Plant response rating, Wild poinsettia ([13]; Rate 70 g/ha): 40
- Plant response rating, Wild poinsettia ([13]; Rate 140 g/ha): 100

Compound: Cc1cnc(-n2ccc(C(F)(F)F)n2)nc1C(=O)c1cccc(OC(F)(F)F)c1 [Compound 66]
- Plant response rating, Rape [1, 18]: 0
- Rape plant response rating ([1]; Rate 62 g/ha, Postemergence): 3
- Rape plant response rating ([1]; Rate 125 g/ha, Postemergence): 3
- Plant response rating, Rape ([1]; Rate 125 g/ha, Preemergence): 0
- Plant response rating, Rape ([1]; Rate 250 g/ha, Postemergence): 7
- Plant response rating, Rape ([1]; Rate 250 g/ha, Preemergence): 4
- Plant response rating, Rape ([1]; Rate 500 g/ha, Postemergence): 7
- Plant response rating, Rape ([1]; Rate 500 g/ha, Preemergence): 8
- Plant response rating, Soybean [2, 18]: 0
- Soybean plant response rating ([2]; Rate 62 g/ha, Postemergence): 5
- Soybean plant response rating ([2]; Rate 125 g/ha, Postemergence): 5
- Plant response rating, Soybean ([2]; Rate 125 g/ha, Preemergence): 0
- Plant response rating, Soybean ([2]; Rate 250 g/ha, Postemergence): 6
- Plant response rating, Soybean ([2]; Rate 250 g/ha, Preemergence): 0
- Plant response rating, Soybean ([2]; Rate 500 g/ha, Postemergence): 7
- Plant response rating, Soybean ([2]; Rate 500 g/ha, Preemergence): 1
- Barnyardgrass plant response rating [3, 14]: 3
- Barnyardgrass plant response rating [3, 15]: 3
- Plant response rating, Barnyardgrass [3, 16]: 4
- Plant response rating, Barnyardgrass [3, 17]: 4
- Ducksalad plant response rating [4, 14]: 2
- Ducksalad plant response rating [4, 15]: 3
- Plant response rating, Ducksalad [4, 16]: 5
- Plant response rating, Ducksalad [4, 17]: 7
- Rice plant response rating [5, 14]: 0
- Rice plant response rating [5, 15]: 1
- Plant response rating, Rice [5, 16]: 1
- Plant response rating, Rice [5, 17]: 2
- S. Flatsedge plant response rating [6, 14]: 6
- S. Flatsedge plant response rating [6, 15]: 8
- Plant response rating, S. Flatsedge [6, 16]: 8
- Plant response rating, S. Flatsedge [6, 17]: 9
- Plant response rating, Cotton ([7]; Rate 35 g/ha): 0
- Plant response rating, Cotton ([7]; Rate 70 g/ha): 0
- Plant response rating, Cotton ([7]; Rate 140 g/ha): 0
- Plant response rating, E. blacknightsh ([8]; Rate 35 g/ha): 0
- Plant response rating, E. blacknightsh ([8]; Rate 70 g/ha): 10
- Plant response rating, E. blacknightsh ([8]; Rate 140 g/ha): 30
- Plant response rating, Field bindweed ([9]; Rate 35 g/ha): 40
- Plant response rating, Field bindweed ([9]; Rate 70 g/ha): 80
- Plant response rating, Field bindweed ([9]; Rate 140 g/ha): 90
- Plant response rating, Giant foxtail ([10]; Rate 35 g/ha): 0
- Plant response rating, Giant foxtail ([10]; Rate 70 g/ha): 0
- Plant response rating, Giant foxtail ([10]; Rate 140 g/ha): 0
- Plant response rating, Lambsquarters ([11]; Rate 35 g/ha): 0
- Plant response rating, Lambsquarters ([11]; Rate 70 g/ha): 0
- Plant response rating, Lambsquarters ([11]; Rate 140 g/ha): 100
- Plant response rating, Surinam grass ([12]; Rate 35 g/ha): 5
- Plant response rating, Surinam grass ([12]; Rate 70 g/ha): 5
- Plant response rating, Surinam grass ([12]; Rate 140 g/ha): 20
- Plant response rating, Wild poinsettia ([13]; Rate 35 g/ha): 0
- Plant response rating, Wild poinsettia ([13]; Rate 70 g/ha): 0
- Plant response rating, Wild poinsettia ([13]; Rate 140 g/ha): 0
